Reference: US8802895B2, “Amide derivatives of benzene-sulfonanilide, pharmaceutical composition thereof and method for cancer treatment using the same” (Cleveland State University, priority 2010, dated 2014)

What was measured:
Format in all cases: cell-based
U251 = assay: NCIDTP 60 cancer cell lines screening, CNS Cancer panel
KM12 = assay: NCIDTP 60 cancer cell lines screening, Colon Cancer panel
TK-10 = assay: NCIDTP 60 cancer cell lines screening, Renal Cancer panel
OVCAR-8 = assay: NCIDTP 60 cancer cell lines screening, Ovarian Cancer panel
MOLT-4 = assay: NCIDTP 60 cancer cell lines screening, Leukemia panel
OVCAR-3 = assay: NCIDTP 60 cancer cell lines screening, Ovarian Cancer panel
NCI-H460 = assay: NCIDTP 60 cancer cell lines screening, Non-Small Cell Lung Cancer panel
EKVX = assay: as above
T-47D = assay: NCIDTP 60 cancer cell lines screening, Breast Cancer panel
COLO 205 = assay: NCIDTP 60 cancer cell lines screening, Colon Cancer panel

Cc1ccc(C)c(COc2cc(NC(=O)c3ccc4c(c3)OCO4)ccc2N(C)S(C)(=O)=O)c1 [Compound #10, Benzo[1,3]dioxole-5-carboxylic acid [3-(2,5-dimethyl-benzyloxy)-4-(methanesulfonyl-methyl-amino)-phenyl]-amide]
CC50 (U251; Homo sapiens, U-251, read-out: LC50): > 100000 nM
GI50 (U251; Homo sapiens, U-251, U251): 266 nM
TGI (U251; U251): 2.19E−5 Molar
Percent Growth (U251; U251, Log10 Concentration −4.0 Molar): −16%
Percent Growth (U251; U251, Log10 Concentration −5.0 Molar): 8%
Percent Growth (U251; U251, Log10 Concentration −6.0 Molar): 15%
Percent Growth (U251; U251, Log10 Concentration −7.0 Molar): 76%
Percent Growth (U251; U251, Log10 Concentration −8.0 Molar): 97%
GI50 (KM12; Homo sapiens, KM12): 85.5 nM
CC50 (KM12; Homo sapiens, KM12, read-out: LC50): > 100000 nM
TGI (KM12; KM12): 1.13E−6 Molar
Percent Growth (KM12; KM12, Log10 Concentration −4.0 Molar): −29%
Percent Growth (KM12; KM12, Log10 Concentration −5.0 Molar): −19%
Percent Growth (KM12; KM12, Log10 Concentration −6.0 Molar): 1%
Percent Growth (KM12; KM12, Log10 Concentration −7.0 Molar): 47%
Percent Growth (KM12; KM12, Log10 Concentration −8.0 Molar): 93%
GI50 (TK-10; Homo sapiens, TK-10): 354 nM
CC50 (TK-10; Homo sapiens, TK-10, read-out: LC50): > 100000 nM
TGI (TK-10; TK-10): >1.00E−4 Molar
Percent Growth (TK-10; TK-10, Log10 Concentration −4.0 Molar): 9%
Percent Growth (TK-10; TK-10, Log10 Concentration −5.0 Molar): 6%
Percent Growth (TK-10; TK-10, Log10 Concentration −6.0 Molar): 18%
Percent Growth (TK-10; TK-10, Log10 Concentration −7.0 Molar): 88%
Percent Growth (TK-10; TK-10, Log10 Concentration −8.0 Molar): 92%
GI50 (OVCAR-8; Homo sapiens, OVCAR-8): 265 nM
CC50 (OVCAR-8; Homo sapiens, OVCAR-8, read-out: LC50): > 100000 nM
TGI (OVCAR-8; OVCAR-8): >1.00E−4 Molar
Percent Growth (OVCAR-8; OVCAR-8, Log10 Concentration −4.0 Molar): 6%
Percent Growth (OVCAR-8; OVCAR-8, Log10 Concentration −5.0 Molar): 8%
Percent Growth (OVCAR-8; OVCAR-8, Log10 Concentration −6.0 Molar): 10%
Percent Growth (OVCAR-8; OVCAR-8, Log10 Concentration −7.0 Molar): 80%
Percent Growth (OVCAR-8; OVCAR-8, Log10 Concentration −8.0 Molar): 94%
GI50 (MOLT-4; Homo sapiens, MOLT-4): 163 nM
CC50 (MOLT-4; Homo sapiens, MOLT-4, read-out: LC50): > 100000 nM
TGI (MOLT-4; MOLT-4): >1.00E−4 Molar
Percent Growth (MOLT-4; MOLT-4, Log10 Concentration −4.0 Molar): 13%
Percent Growth (MOLT-4; MOLT-4, Log10 Concentration −5.0 Molar): 7%
Percent Growth (MOLT-4; MOLT-4, Log10 Concentration −6.0 Molar): 12%
Percent Growth (MOLT-4; MOLT-4, Log10 Concentration −7.0 Molar): 80%
Percent Growth (MOLT-4; MOLT-4, Log10 Concentration −8.0 Molar): 99%
TGI (OVCAR-3): 1.66E−7 Molar
GI50 (OVCAR-3; Homo sapiens): 39.6 nM
Percent Growth (OVCAR-3; Log10 Concentration −4.0 Molar): −32%
Percent Growth (OVCAR-3; Log10 Concentration −5.0 Molar): −44%
Percent Growth (OVCAR-3; Log10 Concentration −6.0 Molar): −67%
Percent Growth (OVCAR-3; Log10 Concentration −7.0 Molar): 19%
Percent Growth (OVCAR-3; Log10 Concentration −8.0 Molar): 96%
GI50 (NCI-H460; Homo sapiens, NCI-H460): 184 nM
CC50 (NCI-H460; Homo sapiens, NCI-H460, read-out: LC50): > 100000 nM
TGI (NCI-H460; NCI-H460): 7.44E−7 Molar
Percent Growth (NCI-H460; NCI-H460, Log10 Concentration −4.0 Molar): −24%
Percent Growth (NCI-H460; NCI-H460, Log10 Concentration −5.0 Molar): −10%
Percent Growth (NCI-H460; NCI-H460, Log10 Concentration −6.0 Molar): −11%
Percent Growth (NCI-H460; NCI-H460, Log10 Concentration −7.0 Molar): 72%
Percent Growth (NCI-H460; NCI-H460, Log10 Concentration −8.0 Molar): 95%
TGI (EKVX): >1.00E−4 Molar
GI50 (EKVX; Homo sapiens): 598 nM
CC50 (EKVX; Homo sapiens, read-out: LC50): > 100000 nM
Percent Growth (EKVX; Log10 Concentration −4.0 Molar): 33%
Percent Growth (EKVX; Log10 Concentration −5.0 Molar): 25%
Percent Growth (EKVX; Log10 Concentration −6.0 Molar): 39%
Percent Growth (EKVX; Log10 Concentration −7.0 Molar): 88%
Percent Growth (EKVX; Log10 Concentration −8.0 Molar): 94%
CC50 (T-47D; Homo sapiens, T47D, read-out: LC50): > 100000 nM
GI50 (T-47D; Homo sapiens, T47D, T-47D): 682 nM
TGI (T-47D; T-47D): >1.00E−4 Molar
Percent Growth (T-47D; T-47D, Log10 Concentration −4.0 Molar): 27%
Percent Growth (T-47D; T-47D, Log10 Concentration −5.0 Molar): 29%
Percent Growth (T-47D; T-47D, Log10 Concentration −6.0 Molar): 45%
Percent Growth (T-47D; T-47D, Log10 Concentration −7.0 Molar): 77%
Percent Growth (T-47D; T-47D, Log10 Concentration −8.0 Molar): 89%
TGI (COLO 205; COLO 205): 1.07E−6 Molar
Percent Growth (COLO 205; COLO 205, Log10 Concentration −4.0 Molar): −33%
Percent Growth (COLO 205; COLO 205, Log10 Concentration −5.0 Molar): −41%
Percent Growth (COLO 205; COLO 205, Log10 Concentration −6.0 Molar): 1%
Percent Growth (COLO 205; COLO 205, Log10 Concentration −7.0 Molar): 99%
Percent Growth (COLO 205; COLO 205, Log10 Concentration −8.0 Molar): 105%
GI50 (COLO 205; Homo sapiens, COLO 205): 318 nM
CC50 (COLO 205; Homo sapiens, COLO 205, read-out: LC50): > 100000 nM
